Experimental data reported in publication PMC9500755, “Albumin-Mediated Size Exclusion Chromatography: The Apparent Molecular Weight of PSMA Radioligands as Novel Parameter to Estimate Their Blood Clearance Kinetics” (Pharmaceuticals, 2022).
Values joined by “and” are separate entries in the source; they are usually repeats but may differ in a detail not shown here. Equal values may be shown once.

Tests used:
[1] = Calculated glomerular sieving coefficients (GSCcalc) from MWapp,norm.; conditions: from MWapp,norm. via sigmoidal fit of MW vs GSC of 12 human plasma proteins
Excerpt: Therefore, when comparing the MWapp,norm. of different radioligands, not only their relative difference but also the absolute values of MWapp,norm. are of importance. […] These GSCcalc determined for all the PSMA radioligands (Table 2, Figure 5) inherently account for the exponential nature of the relationship between their albumin-mediated MWapp,norm. and MW-dependent GF and could, therefore, be a useful parameter to estimate differences in blood clearance by means of GF. The GSC is defined as the ratio of a compound’s concentration in the glomerular filtrate to that in the blood; thus, a GSC of 1 represents unhindered filtration through the capillary membrane in the glomerulus, while a lower GSC corresponds to a restricted filtration and, thus, a prolonged circulatory half-life. […] As an example, a GSCcalc of 0.408 was determined for rhPSMA-7.3, while an almost three-fold smaller GSCcalc of 0.138 was determined for rhPSMA-7.4. […] This would constitute a dramatic physiological effect that, in its extent, could not be predicted only based on subtle differences in molecular structure and other conventionally determined in vitro parameters. We, therefore, believe that the MWapp,norm. and GSCcalc obtained by AMSEC could be important parameters that, already at the preclinical stage of development, could help in the selection of promising therapeutic radioligands with pharmacokinetic profiles suitable for patient application.
A sigmoidal fit of molecular weights (MWs, in kDa) and corresponding glomerular sieving coefficients (GSCs) of 12 human plasma proteins (data taken from Norden et al.) was executed using OriginPro software. A dose-response model based on Equation (6) was applied:(6) GSC=A1+A2−A1/1+10^(LOGx0−MW)·p.
The values of bottom asymptote A1 and top asymptote A2 were set to 4.2∙10^−5 (GSC of IgG, data taken from Norden et al.) and 1 (equaling complete sieving), respectively. Curve fitting gave the center parameter LOGx0 = 19.36833 and the Hill slope p = −0.12108. GSCcalc values were calculated via implementation of fitting parameters and the experimentally determined MWapp,norm. in Equation (6).

[2] = biological target: T1, human serum albumin (HSA) (Homo sapiens, UniProt P02768); assay: Albumin-mediated size exclusion chromatography (AMSEC); type: in vitro ADME; conditions: for tR,AMSEC (retention time in AMSEC run): 177Lu-labeled ligand, mobile phase 700 µM HSA in PBS pH 7.4, Superdex 75 Increase, corrected for detector offset, normalized to column 1; for Retention factor k: fraction of time the radioligand is complexed to HSA during the AMSEC run, Equation (2); for MWapp,raw (raw apparent molecular weight): from tR,AMSEC by column calibration, 700 µM HSA in PBS pH 7.4; for MWapp,norm. (normalized apparent molecular weight): from tR,norm. by column calibration; for tR,norm. (normalized retention time): normalized with tR,blank, tR,HSA and tR,acetone, Equation (5); for MWapp,raw in percentage of the MWapp,raw of rhPSMA-7.3: rhPSMA-7.3 = 100%
T1 construct: purchased Biowest, Nuaillé, France
Procedure: All size exclusion chromatographic (SEC) experiments were carried out using the above-mentioned HPLC system equipped with a Superdex 75 Increase 10/300 GL gel filtration size exclusion column (fractionation range 70–3 kDa, GE Healthcare, Uppsala, Sweden). Eluents at room temperature, a constant flow rate of 0.8 mL/min, and an acquisition time of 35 min were generally applied. The column was calibrated as recommended by the manufacturer using a commercially available set of proteins (Gel Filtration LMW Calibration Kit, GE Healthcare, Buckinghamshire, UK). Retention times of calibration proteins and calculated calibration parameters are given in the Supplementary Materials (Table S3). UV signal detection occurred at 280 nm.
All retention times of radio signals were corrected for the offset between the UV-vis detector and radio-detector (Δt = 0.084 min). Throughout the development of the AMSEC method, three gel filtration columns of the same type were used for experiments (most data were acquired using column 1). As calculations were based on absolute empirical retention times that inherently differed slightly from column to column, all retention times determined on column 2 and column 3 were mathematically converted to an equivalent retention time on column 1 using the columns’ calibration parameters. A detailed description of these calculations is provided in the Supplementary Materials.
All numerical retention times explicitly given in running text or tables and plotted in diagrams are already corrected for the offset between UV-vis and radio-detector and, if initially determined on columns 2 or 3, converted to the equivalent retention time on column 1 (for detailed information, see Equations (S1) and (S2) and Table S1 in the Supplementary Materials).
AMSEC runs were executed with a solution of HSA (Biowest, Nuaillé, France) in PBS (pH 7.4) at physiological concentration (700 µM) as a mobile phase. Upon injection of approximately 1.0 MBq (5–10 µL) of a radioligand, the elution profile was monitored via radioactivity detection, and the retention times of observed radiopeaks (tR,AMSEC) were determined via semi-automated peak integration. By means of calibration, retention times were translated into a ligand-specific raw apparent molecular weight (MWapp,raw) as a parameter to assess the extent of HSA binding (for calculation, see Equation (S6) in the Supplementary Materials). rhPSMA-7.3 served as an internal standard during AMSEC studies and was co-evaluated whenever new data were collected to assess the reproducibility of the method (n = 14).
For reference purposes, conventional SEC runs of HSA (100 µL, 3 mg/mL) and acetone (100 µL, 2% in PBS pH 7.4) with PBS (pH 7.4) as a mobile phase were executed. The retention time of HSA (tR,HSA) corresponded to the maximal MWapp,raw, theoretically observable in AMSEC runs in the case of continuous binding of a radioligand to HSA (equivalent to 100% HSA binding). The retention time of acetone (tR,acetone) served as a reference for a ligand with no interaction with HSA in AMSEC runs (equivalent to 0% HSA binding) and an actual physical molecular weight below the column fractionation range (this was the case for all investigated radioligands).
MWapp,raw values determined as described in Section 3.3.1. were normalized in order to account for ligand-specific influences on experimentally determined retention times and to establish quantitative comparability of the obtained MWapp,norm. values. The normalization was based on a SEC run (referred to as blank run) of a radioligand executed in analogy to the AMSEC run but using PBS (pH 7.4) without HSA as a mobile phase. The determined retention time tR,blank, together with the retention time tR,AMSEC from the AMSEC run, tR,HSA, and tR,acetone determined in Section 3.3.1, were used to calculate a normalized retention time tR,norm. for every radioligand (for formulae and details on the calculation, see Section 2. Results and Discussion). […]

[3] = Blank SEC run of radioligand (PBS pH 7.4 without HSA); type: physicochemical; conditions: PBS pH 7.4 without HSA as mobile phase; corresponds to 0% HSA binding
Procedure: To validate this hypothesis, blank runs (PBS pH 7.4 as mobile phase) of the radioligands on the SEC column were performed. The resulting retention times were termed tR,blank and represent the ligand-specific retention time that would correspond to 0% HSA binding in the AMSEC experiment. […] We concluded that unspecific electrostatic interactions between the highly negatively charged radioligand and the agarose/dextran-based matrix of the superdex column are present and lead to an elution prior to the expected cut-off volume. Consequently, apart from the radioligand’s binding to HSA in the AMSEC run, the unspecific interactions with the column matrix contribute to the determined MWapp,raw, thus hampering its informative value. […]
MWapp,raw values determined as described in Section 3.3.1. were normalized in order to account for ligand-specific influences on experimentally determined retention times and to establish quantitative comparability of the obtained MWapp,norm. values. […] The determined retention time tR,blank, together with the retention time tR,AMSEC from the AMSEC run, tR,HSA, and tR,acetone determined in Section 3.3.1, were used to calculate a normalized retention time tR,norm. for every radioligand (for formulae and details on the calculation, see Section 2. Results and Discussion). […]

T1 sequence (P02768 25-609): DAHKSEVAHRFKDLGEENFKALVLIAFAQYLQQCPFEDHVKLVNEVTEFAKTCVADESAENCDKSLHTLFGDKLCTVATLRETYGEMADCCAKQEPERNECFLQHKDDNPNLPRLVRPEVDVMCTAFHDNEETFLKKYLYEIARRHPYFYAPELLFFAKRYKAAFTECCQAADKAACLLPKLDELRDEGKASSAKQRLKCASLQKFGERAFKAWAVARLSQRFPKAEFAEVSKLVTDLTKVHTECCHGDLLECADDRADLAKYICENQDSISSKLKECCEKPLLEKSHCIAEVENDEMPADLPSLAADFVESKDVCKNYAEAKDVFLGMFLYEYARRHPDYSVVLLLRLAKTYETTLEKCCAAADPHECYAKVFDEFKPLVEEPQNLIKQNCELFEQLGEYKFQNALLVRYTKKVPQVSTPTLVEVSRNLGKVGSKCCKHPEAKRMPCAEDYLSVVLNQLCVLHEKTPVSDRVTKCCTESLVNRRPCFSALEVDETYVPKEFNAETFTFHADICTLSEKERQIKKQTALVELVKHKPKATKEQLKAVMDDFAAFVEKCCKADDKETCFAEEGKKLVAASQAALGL

Row | SMILES | GSCcalc (calculated glomerular sieving coefficient) [1] | tR,AMSEC (retention time in AMSEC run) [2] | Retention factor k [2] | MWapp,raw (raw apparent molecular weight) [2] | MWapp,norm. (normalized apparent molecular weight) [2] | tR,norm. (normalized retention time) [2] | MWapp,norm. higher than that of the stereoisomer ([2]; rhPSMA-7.2 vs rhPSMA-7.1, rhPSMA-10.1 vs rhPSMA-10.2) | MWapp,raw in percentage of the MWapp,raw of rhPSMA-7.3 [2] | Relative reduction in MWapp,norm. compared to MWapp,raw ([2]; effect of normalization) | tR,blank (retention time in blank run) [3]
1 | CC(C)(C)[Si](F)(c1ccc(C(=O)NC[C@H](NC(=O)CC[C@H](C(=O)O)N2CCN(CC(=O)[O-])CCN(CC(=O)[O-])CCN(CC(=O)[O-])CC2)C(=O)N[C@H](CCCCNC(=O)CCC(=O)NCCC[C@@H](NC(=O)CC[C@H](NC(=O)N[C@@H](CCC(=O)O)C(=O)O)C(=O)O)C(=O)O)C(=O)O)cc1)C(C)(C)C.[177Lu+3] [rhPSMA-7.2] | 0.344 | 14.564 min | 0.680 | 32.0 kDa | 21.7 kDa | 15.962 min | 27% |  |  | 
2 | CC(C)(C)[Si](F)(c1ccc(C(=O)NC[C@H](NC(=O)CC[C@@H](C(=O)O)N2CCN(CC(=O)[O-])CCN(CC(=O)[O-])CCN(CC(=O)[O-])CC2)C(=O)N[C@H](CCCCNC(=O)CCC(=O)NCCC[C@@H](NC(=O)CC[C@H](NC(=O)N[C@@H](CCC(=O)O)C(=O)O)C(=O)O)C(=O)O)C(=O)O)cc1)C(C)(C)C.[177Lu+3] [rhPSMA-7.4] | 0.138 | 14.143 min | 0.729 | 36.0 kDa | 26.0 kDa | 15.316 min |  | ~120% |  | 
3 | CC(C)(C)[Si](F)(c1ccc(C(=O)NC[C@@H](NC(=O)CC[C@H](C(=O)O)N2CCN(CC(=O)[O-])CCN(CC(=O)[O-])CCN(CC(=O)[O-])CC2)C(=O)N[C@H](CCCCNC(=O)CCC(=O)NCCC[C@@H](NC(=O)CC[C@H](NC(=O)N[C@@H](CCC(=O)O)C(=O)O)C(=O)O)C(=O)O)C(=O)O)cc1)C(C)(C)C.[177Lu+3] [rhPSMA-7.1] | 0.655 | 15.240 min | 0.613 | 26.5 kDa | 17.1 kDa | 16.824 min |  |  |  | 
4 | CC(C)(C)[Si](F)(c1ccc(C(=O)NC[C@H](NC(=O)CN2CCN(CC(=O)[O-])CCN(CC(=O)[O-])CCN(CC(=O)[O-])CC2)C(=O)N[C@H](CCCCNC(=O)CCC(=O)NCCC[C@@H](NC(=O)CC[C@H](NC(=O)N[C@@H](CCC(=O)O)C(=O)O)C(=O)O)C(=O)O)C(=O)O)cc1)C(C)(C)C.[177Lu+3] [rhPSMA-10.2] | 0.846 | 15.908 min | 0.543 | 22.0 kDa | 13.2 kDa | 17.736 min |  |  |  | 
5 | O=C(O)CC[C@H](NC(=O)N[C@@H](CCCCNC(=O)CCCCCCC(=O)NCCCC[C@@H](NC(=O)[C@@H](Cc1ccccc1)NC(=O)[C@@H](Cc1ccc(O)c(I)c1)NC(=O)CCC(C(=O)O)N1CCN(CC(=O)O)CCN(CC(=O)O)CCN(CC(=O)O)CC1)C(=O)O)C(=O)O)C(=O)O (stereo partly shown) (177Lu complex, metal not drawn) [PSMA-I&T, reference compound] |  | 20.983 min | 0.0013 and 0.001 | 5.4 kDa | 1.9 kDa | 24.792 min |  | approximately 18% | around 60% | 20.995 min
